According to BigSolDB 2.1:

Compound: O=S(=O)([O-])NC1CCCCC1.[Na+]
- solubility (mole fraction) (in DMF, 283.15 K): 3.1e-05
- solubility (mole fraction) (in DMF, 288.14 K): 0.000121
- solubility (mole fraction) (in DMF, 293.17 K): 0.000214
- solubility (mole fraction) (in DMF, 298.15 K): 0.000364
- solubility (mole fraction) (in DMF, 303.13 K): 0.00051
- solubility (mole fraction) (in DMF, 308.15 K): 0.000724
- solubility (mole fraction) (in DMF, 313.14 K): 0.00095
- solubility (mole fraction) (in DMF, 318.13 K): 0.00119
- solubility (mole fraction) (in DMF, 323.17 K): 0.00141
- solubility (mole fraction) (in DMSO, 293.13 K): 0.000997
- solubility (mole fraction) (in DMSO, 298.15 K): 0.00226
- solubility (mole fraction) (in DMSO, 303.14 K): 0.00433
- solubility (mole fraction) (in DMSO, 308.15 K): 0.00792
- solubility (mole fraction) (in DMSO, 313.16 K): 0.0117
- solubility (mole fraction) (in DMSO, 318.15 K): 0.0154
- solubility (mole fraction) (in DMSO, 323.2 K): 0.0183
- solubility (mole fraction) (in DMSO, 328.15 K): 0.0198
- solubility (mole fraction) (in DMSO, 333.17 K): 0.0203
- solubility (mole fraction) (in acetic acid, 293.15 K): 0.0037
- solubility (mole fraction) (in acetic acid, 298.14 K): 0.00501
- solubility (mole fraction) (in acetic acid, 303.15 K): 0.00649
- solubility (mole fraction) (in acetic acid, 308.17 K): 0.00753
- solubility (mole fraction) (in acetic acid, 313.15 K): 0.00877
- solubility (mole fraction) (in acetic acid, 318.13 K): 0.0103
- solubility (mole fraction) (in acetic acid, 323.15 K): 0.0115
- solubility (mole fraction) (in acetic acid, 328.17 K): 0.0128
- solubility (mole fraction) (in acetic acid, 333.2 K): 0.0134
- solubility (mole fraction) (in formamide, 283.13 K): 0.0319
- solubility (mole fraction) (in formamide, 288.15 K): 0.0391
- solubility (mole fraction) (in formamide, 293.16 K): 0.0438
- solubility (mole fraction) (in formamide, 298.17 K): 0.0472
- solubility (mole fraction) (in formamide, 303.15 K): 0.0506
- solubility (mole fraction) (in formamide, 308.14 K): 0.0526
- solubility (mole fraction) (in formamide, 313.15 K): 0.0543
- solubility (mole fraction) (in formamide, 318.12 K): 0.0554
- solubility (mole fraction) (in formamide, 323.15 K): 0.0567
- solubility (mole fraction) (in formic acid, 283.13 K): 0.016
- solubility (mole fraction) (in formic acid, 288.13 K): 0.0179
- solubility (mole fraction) (in formic acid, 293.1 K): 0.0209
- solubility (mole fraction) (in formic acid, 299.12 K): 0.0239
- solubility (mole fraction) (in formic acid, 303.15 K): 0.0275
- solubility (mole fraction) (in formic acid, 308.17 K): 0.0319
- solubility (mole fraction) (in formic acid, 313.13 K): 0.037
- solubility (mole fraction) (in formic acid, 318.2 K): 0.0424
- solubility (mole fraction) (in formic acid, 323.15 K): 0.0487
- solubility (mole fraction) (in methanol, 283.1 K): 0.00271
- solubility (mole fraction) (in methanol, 288.15 K): 0.00295
- solubility (mole fraction) (in methanol, 293.24 K): 0.00314
- solubility (mole fraction) (in methanol, 298.1 K): 0.00331
- solubility (mole fraction) (in methanol, 303.15 K): 0.00352
- solubility (mole fraction) (in methanol, 308.2 K): 0.00376
- solubility (mole fraction) (in methanol, 313.19 K): 0.00405
- solubility (mole fraction) (in methanol, 318.2 K): 0.00436
- solubility (mole fraction) (in methanol, 323.15 K): 0.00467
- solubility (mole fraction) (in water, 283.13 K): 0.0152
- solubility (mole fraction) (in water, 288.17 K): 0.0166
- solubility (mole fraction) (in water, 293.15 K): 0.018
- solubility (mole fraction) (in water, 298.14 K): 0.02
- solubility (mole fraction) (in water, 303.17 K): 0.0233
- solubility (mole fraction) (in water, 308.13 K): 0.0284
- solubility (mole fraction) (in water, 313.15 K): 0.0363
- solubility (mole fraction) (in water, 318.14 K): 0.0461
- solubility (mole fraction) (in water, 323.15 K): 0.0512
